Legend:
[1] = Pharmacokinetics of compound (I), alone versus in combination with (III) and ritonavir, healthy subjects; format: in vivo, human; conditions: geometric mean; for Cmax / AUC(0-t): human, in vivo; for AUC(0-t): read-out: AUC24 h
Method: The pharmacokinetic variables for the compound of formula (I) and (III) administered alone where compared when they were co-administered in a combination of (I), (II) and (III). All tables indicate Geometric mean (CV %) pharmacokinetic parameters and might be the result of multiple studies. The compounds are indicated by their respective numbers (I, II or III) in the tables below. A comparison is made between administration of compound of Formula (I) 150 mg alone versus 300 mg compound of formula (III) in combination with 50 mg of compound of Formula (I) and 20 mg of Ritonavir (compound of Formula (II) according to the following protocol. • 150 mg qd (I) given for 14 days to 10 healthy subjects • Washout of 14 days • 50 mg qd (I), 300 mg qd (III), 20 mg qd ritonavir (II) given for 14 days to the same 10 healthy volunteers.

[2] = Pharmacokinetics of compound (III), alone versus in combination with (I) and ritonavir; format: in vivo, human; conditions: geometric mean (CV%); for Cmax / AUC(0-t): human, in vivo; for AUC(0-t): read-out: AUC24 h
Method: The pharmacokinetic variables for the compound of formula (I) and (III) administered alone where compared when they were co-administered in a combination of (I), (II) and (III). All tables indicate Geometric mean (CV %) pharmacokinetic parameters and might be the result of multiple studies. The compounds are indicated by their respective numbers (I, II or III) in the tables below. A comparison is made between an administration of compound of Formula (III) 1000 mg alone, versus 300 mg compound of formula (III) in combination with 50 mg of compound of Formula (I) and 20 mg of Ritonavir (compound of Formula (II). The results are indicated in table 2 below.

[3] = 50 mg (I) + 300 mg (III) + 20 mg RTV qd for 14 days, same 10 healthy volunteers
[4] = (I) alone, 150 mg qd for 14 days, 10 healthy subjects
[5] = 300 mg (III) + 50 mg (I) + 20 mg (II) qd

Row | Cmin [1, 3] [ng/mL] | Cmin [1, 4] [ng/mL] | Cmax [1, 3] [ng/mL] | AUC(0-t) [1, 3] [ng·h/mL] | Cmax [1, 4] [ng/mL] | AUC(0-t) [1, 4] [ng·h/mL] | Cmin [2, 5] | Cmin ([2]; (III) alone, 1000 mg bid) | Cmax [2, 5] [ng/mL] | AUC(0-t) [2, 5] [ng·h/mL] | Cmax ([2]; (III) alone, 1000 mg bid) [ng/mL] | AUC(0-t) ([2]; (III) alone, 1000 mg bid) [ng·h/mL] | SMILES
1 | 375 | 1405 | 1460 | 20000 | 4750 | 71200 | – | – | – | – | – | – | COc1ccc2c(O[C@@H]3C[C@H]4C(=O)N[C@]5(C(=O)NS(=O)(=O)C6CC6)C[C@H]5/C=C\CCCCN(C)C(=O)[C@@H]4C3)cc(-c3nc(C(C)C)cs3)nc2c1C [I, (1R,4R,6S,15R,17R)-cis-N-[17-[2-(4-isopropylthiazole-2-yl)-7-methoxy-8-methylquinolin-4-yloxy]-13-methyl-2,14-dioxo-3,13-diazatricyclo[13.3.0.0^4,6]octadec-7-ene-4-carbonyl]-(cyclopropyl)sulfonamide]
2 | – | – | – | – | – | – | 0.21 (86%) μg/ml | 0.16 (42%) μg/ml | 6570 | 52200 | 5220 | 40100 | COc1ccc2c(c1)C=C1Cn3c-2c(C2CCCCC2)c2ccc(cc23)C(=O)NS(=O)(=O)N(C)CCOCCN(C)C1=O [III]

From patent US20150209366A1, “COMBINATION OF A MACROCYCLIC PROTEASE INHIBITOR OF HCV, A NON-NUCLEOSIDE HCV INHIBITOR AND RITONAVIR” (Janssen Pharmaceuticals, Inc., priority 2012, published 2015)
